21 molecules from paper PMC8386730, “Pyrrolidine-based 3-deoxysphingosylphosphorylcholine analogs as possible candidates against neglected tropical diseases (NTDs): identification of hit compounds towards development of potential treatment of Leishmania donovani” (Journal of Enzyme Inhibition and Medicinal Chemistry, 2021) can be followed below.

Usually IC50 stands for the concentration that gives 50% inhibition. The term CC50 denotes the concentration that lowers cell viability or growth by half.

Series [1] has as its system L. donovani promastigotes. Nature of the series: Growth inhibition of L. donovani promastigotes (resazurin-based assay). In kind it is cell-based, Leishmania donovani. Further details: Inhibition at both 50 and 25 µM concentrations: unit: %. As to conditions: for inhibition at 25 µM / inhibition at 50 µM / IC50: Leishmania donovani, 72 h, incubation 3 days; for inhibition at 25 µM / inhibition at 50 µM: relative to control; for inhibition at 25 µM: read-out: % Inhibition at 25 µM concentration; for inhibition at 50 µM: read-out: % Inhibition at 50 µM concentration; for IC50: extracellular promastigotes, duplicates, read-out: IC50 ± SD, growth of L. donovani promastigotes; for Potency against promastigotes (in words): dose-response evaluation. Here is the method: Out of 20 known Leishmania species pathogenic to humans, L. donovani, which causes visceral leishmaniasis, is the most fatal. Consequently, an in vitro model of L. donovani promastigotes[26] was selected to evaluate the activity of the synthesised pyrrolidine-based 3-deoxysphingosylphosphorylcholine analogs 1e–i, 2a–f, 3a–f at two concentration (50 and 25 µM) employing miltefosine and erufosine (ErPC; erucylphosphocholine) as reference standards using a resazurin-based assay.
For comparison, erufosine and miltefosine were used as reference standards.
L. donovani MHOM/SD/62/1S-CL2D parasites were cultured as promastigotes at 28 °C in M199 medium (Sigma-Aldrich, St. Louis, MO, USA) with 40 mM HEPES, 0.1 mM adenine, 0.0001% biotin, and 4.62 mM NaHCO3 supplemented with 10% foetal bovine serum (FBS, Gibco, Carlsbad, CA, USA), […] penicillin (Gibco), and 100 µg/mL streptomycin (Gibco). Parasites were sub-cultured every 3 or 4 days and maintained for 10 passages.
The plates were analysed using a Victor3TM plate reader (PerkinElmer, Inc., Waltham, MA, USA) at 590 nm (emission) and 530 nm (excitation). Miltefosine and erufosine were used as the reference standards. All measured and calculated values are the averages of duplicates. The dose-response curves were generated by GraphPad Prism 6 software using a sigmoidal dose-response equation with a variable hill slope option.
Background: Resazurin is reduced to fluorescent resorufin, in cell work by metabolically active cells.

Series [2] is described as follows: Cytotoxicity against HEK293T cells (resazurin). Type of series: cell-based. Particulars: human, duplicates, read-out: HEK293T CC50 ± SD. The source says: As the extracellular promastigotes form represents the insect stage of the parasite, assessment of activity is needed to confirm activity against the intracellular amastigotes form, which is the human host form (mammalian host form). In addition, a preliminary assessment of selectivity and safety might be desirable to evaluate the quality of hit compounds. Accordingly, compound 1e and its enantiomer; 1a, in parallel with standard drugs miltefosine and erufosine were submitted for evaluation in intracellular amastigotes model using infected THP-1 cells; human monocytic cell line derived from an acute monocytic leukaemia. In addition, cytotoxicity of tested compounds and standards were evaluated against THP-1 cells and normal human embryonic kidney cells; HEK293T to evaluate selectivity and safety. Cytotoxicity against HEK293T cell growth was assayed by measuring the conversion of resazurin to resorufin. The assays were performed in 384-well plates that were seeded with HEK293T cells (1000 cells per well). After seeding, the cells were exposed to the compounds for 3 days. Resazurin sodium salt (200 µM; R7017; Sigma-Aldrich, St. Louis, MO, USA) was then added, and the samples were incubated for 5 h. After incubation, the […] were fixed using 4% paraformaldehyde, and the plates were analysed using a Victor3TM plate reader (PerkinElmer, Inc., Waltham, MA, USA) at 590 nm (emission) and 530 nm (excitation). Miltefosine and saponin were used as the reference drugs for the HEK293T growth inhibition.

A further series has as its system THP-1 cells. Nature of the series: Cytotoxicity against THP-1 host cells. Type of series: cell-based, human. As to conditions: CC50 THP-1 divided by IC50 intracellular L. donovani. The source says: (§1) As the extracellular promastigotes form represents the insect stage of the parasite, assessment of activity is needed to confirm activity against the intracellular amastigotes form, which is the human host form (mammalian host form). In addition, a preliminary assessment of selectivity and safety might be desirable to evaluate the quality of hit compounds. Accordingly, compound 1e and its enantiomer; 1a, in parallel with standard drugs miltefosine and erufosine were submitted for evaluation in intracellular amastigotes model using infected THP-1 cells; human monocytic cell line derived from an acute monocytic leukaemia. In addition, cytotoxicity of tested compounds and standards were evaluated against THP-1 cells and normal human embryonic kidney cells; HEK293T to evaluate selectivity and safety. PMA-treated THP-1 human monocytic cells were seeded at 0.8 × 10^4 cells per well in a 384-well culture plate (Greiner Bio-One, Kremsmünster, Austria) in RPMI-1640 complete medium supplemented with 10% FBS. After 48 h of incubation at 37 °C in the presence of 5% CO2, infected THP-1 cells were treated with miltefosine (at 80 µM, positive control), and tested compounds (at 200 µM). The negative control consisted of THP-1 infected with the parasite with only 0.5% DMSO. After 72 h, the cells that were infected and treated with the drug were washed with serum-free RPMI-1640 medium. The cells and parasites were stained using 5 µM DAPI and 4% PFA. The images were acquired based on reading using an Operetta® automated microscope (PerkinElmer, Inc., Waltham, MA 02451, USA). They were further analysed using Columbus^TM (PerkinElmer, Inc. Waltham, MA, USA) software to quantify parasite numbers, and host cell numbers. In brief, large-sized nucleus of host cells was first detected using DAPI signal and the host cell boundary masking was performed using the low-intensity signals from cytosols. Then the small-sized nucleus signal by DAPI was used to identify parasites within the area of the masked host cell. The DRC results were further assessed in a dose-dilution manner (two-fold serial dilution for 10 points starting from 200 µM).

The nature of series [3]: Cytotoxicity against THP-1 host cells. Type of series: cell-based, human. Particulars: human, PMA-treated THP-1 monocytic cells infected with the parasite; THP-1 cells, duplicates; read-out: THP-1 cell CC50 ± SD.
Source text: as §1

Series [4] deals with intracellular L. donovani amastigotes. Nature of the series: Intracellular L. donovani amastigotes in infected THP-1 cells (image-based). Type of series: cell-based. As to conditions: Leishmania donovani, 72 h, duplicates, read-out: Intracellular L. donovani IC50 ± SD.
Source text: as §1

Structures are written as SMILES.

For the molecule `CCCCCCCC/C=C\CCCCCCCC(=O)N1CC[C@@H](OP(=O)([O-])OCC[N+](C)(C)C)C1` [Compound 3c], in series [1], the inhibition at 25 µM worked out at 106%; the inhibition at 50 µM amounted to 106%; the IC50 is greater than 100 µM; the “Activity at both 50 and 25 µM concentrations (in words)” value (from here on “Activity”) was “maintained high activity”. For the same molecule, in series [1], the “Potency against promastigotes (in words)” value is on record as “weak potency”.

For `CCCCCC/C=C\CCCCCCCC(=O)N1CC[C@@H](OP(=O)([O-])OCC[N+](C)(C)C)C1` [Compound 3b], in series [1], the inhibition at 25 µM is 67% and the inhibition at 50 µM came to 90%.

With `CCCCCCCC/C=C\CCCCCCCCCCCC(=O)N1CCC[C@H]1COP(=O)([O-])OCC[N+](C)(C)C` [Compound 1g], in series [1], the inhibition at 25 µM worked out at 110%; the inhibition at 50 µM is 109%; the 50% inhibitory concentration (IC50) was determined as 68.47 ± 0.04 µM; the “Activity” value is “highly active”.

Take `CCCCCCCCCCCCCCCC(=O)N1CCC[C@H]1COP(=O)([O-])OCC[N+](C)(C)C` [Compound 1e]: in series [2], the CC50 at 3 days was 45.1 ± 5.01 µM. The same molecule came in with a Selectivity index with THP-1 cells of 1.1. In series [3], the CC50 at 72 h was determined as 15.8 ± 3.23 µM. Besides, in series [1], the inhibition at 25 µM was determined as 107%; the inhibition at 50 µM is 107%; the IC50 was found to be 28.3 ± 1.38 µM; the “Activity” value is on record as “highly active”. For the same molecule, the IC50 in series [4] worked out at 14.3 ± 2.03 µM.

In the case of `CCCCCCCCCCCCCCCC(=O)N1CC[C@H](COP(=O)([O-])OCC[N+](C)(C)C)C1` [Compound 2a], in series [1], the inhibition at 25 µM turned out to be 107%; the inhibition at 50 µM stood at 108%; the IC50 stood at 54.6 ± 2.02 µM; the “Activity” value is recorded as “highly active”.

Take `CCCCCCCC/C=C\CCCCCCCCCCCC(=O)N1CCC[C@@H]1COP(=O)([O-])OCC[N+](C)(C)C` [Compound 1d]: in series [1], the inhibition at 25 µM was 107%; the inhibition at 50 µM turned out to be 108%; the IC50 is 46.65 ± 0.45 µM; the “Inhibition at both 50 and 25 µM concentrations” value is recorded as no less than 100.

For `CC/C=C\C/C=C\C/C=C\CCCCCCCC(=O)N1CCC[C@H]1COP(=O)([O-])OCC[N+](C)(C)C` [Compound 1i], in series [1], the inhibition at 25 µM is -16%; the inhibition at 50 µM amounted to 1%; the “Activity” value was “completely inactive”.

In the case of `CCCCCCCCCCCCCCCC(=O)N1CCC[C@@H]1COP(=O)([O-])OCC[N+](C)(C)C` [Compound 1a], the CC50 at 3 days in series [2] came to 30.6 ± 2.31 µM. The molecule also had a Selectivity index with THP-1 cells of 2.2. For the same molecule, the half-maximal cytotoxic concentration (CC50) at 72 h in series [3] worked out at 25.3 ± 3.56 µM. In addition, in series [1], the inhibition at 25 µM was determined as 107%; the inhibition at 50 µM is 108%; the IC50 amounted to 52.6 ± 1.44 µM; the “Inhibition at both 50 and 25 µM concentrations” value was no less than 100. Further, the IC50 in series [4] was found to be 11.3 ± 1.81 µM.

On to `CCCCCC/C=C\CCCCCCCC(=O)N1CCC[C@@H]1COP(=O)([O-])OCC[N+](C)(C)C` [Compound 1b], for which, in series [1], the inhibition at 25 µM amounted to 108%; the inhibition at 50 µM is 109%; the IC50 came out at 66.1 ± 3.61 µM; the “Inhibition at both 50 and 25 µM concentrations” value was no less than 100.

Take `CCCCC/C=C\C/C=C\CCCCCCCC(=O)N1CC[C@@H](OP(=O)([O-])OCC[N+](C)(C)C)C1` [Compound 3e]: in series [1], the inhibition at 25 µM worked out at 0% and the inhibition at 50 µM amounted to 69%.

Take `CCCCCCCC/C=C\CCCCCCCC(=O)N1CCC[C@@H]1COP(=O)([O-])OCC[N+](C)(C)C` [Compound 1c]: in series [1], the inhibition at 25 µM is 10% and the inhibition at 50 µM amounted to 51%.

In the case of `CC/C=C\C/C=C\C/C=C\CCCCCCCC(=O)N1CC[C@H](COP(=O)([O-])OCC[N+](C)(C)C)C1` [Compound 2f], in series [1], the inhibition at 25 µM came out at 0%; the inhibition at 50 µM turned out to be 9%; the “Activity” value was “completely inactive”.

For the molecule `CCCCC/C=C\C/C=C\CCCCCCCC(=O)N1CCC[C@H]1COP(=O)([O-])OCC[N+](C)(C)C` [Compound 1h], in series [1], the inhibition at 25 µM was -18%; the inhibition at 50 µM came out at 0%; the “Activity” value was “completely inactive”.

As to `CCCCCCCC/C=C\CCCCCCCCCCCC(=O)N1CC[C@@H](OP(=O)([O-])OCC[N+](C)(C)C)C1` [Compound 3d], in series [1], the inhibition at 25 µM is 107%; the inhibition at 50 µM was determined as 104%; the IC50 was greater than 100 µM; the “Activity” value was “highly active”. Further, the “Potency against promastigotes (in words)” value in series [1] is listed as “poor potency”.

Regarding `CCCCC/C=C\C/C=C\CCCCCCCC(=O)N1CC[C@H](COP(=O)([O-])OCC[N+](C)(C)C)C1` [Compound 2e], in series [1], the inhibition at 25 µM worked out at 34% and the inhibition at 50 µM was determined as 101%.

For `CCCCCCCCCCCCCCCC(=O)N1CC[C@@H](OP(=O)([O-])OCC[N+](C)(C)C)C1` [Compound 3a], in series [1], the inhibition at 25 µM was 108%; the inhibition at 50 µM turned out to be 109%; the concentration for half-maximal inhibition (IC50) is greater than 100 µM; the “Activity” value is “highly active”. In addition, the “Potency against promastigotes (in words)” value in series [1] is reported as “weak potency”.

As to `CCCCCCCC/C=C\CCCCCCCCCCCC(=O)N1CC[C@H](COP(=O)([O-])OCC[N+](C)(C)C)C1` [Compound 2d], in series [1], the inhibition at 25 µM stood at 107%; the inhibition at 50 µM amounted to 109%; the IC50 is greater than 100 µM; the “Activity” value was “highly active”. In series [1], the “Potency against promastigotes (in words)” value is “poor potency”.

`CC/C=C\C/C=C\C/C=C\CCCCCCCC(=O)N1CC[C@@H](OP(=O)([O-])OCC[N+](C)(C)C)C1` [Compound 3f]: in series [1], the inhibition at 25 µM is -14%; the inhibition at 50 µM came to 1%; the “Activity” value is “completely inactive”.

For the molecule `CCCCCCCC/C=C\CCCCCCCC(=O)N1CC[C@H](COP(=O)([O-])OCC[N+](C)(C)C)C1` [Compound 2c], in series [1], the inhibition at 25 µM was -19% and the inhibition at 50 µM came out at 107%.

In the case of `CCCCCCCC/C=C\CCCCCCCC(=O)N1CCC[C@H]1COP(=O)([O-])OCC[N+](C)(C)C` [Compound 1f], in series [1], the inhibition at 25 µM came out at 65% and the inhibition at 50 µM amounted to 108%.

Regarding `CCCCCC/C=C\CCCCCCCC(=O)N1CC[C@H](COP(=O)([O-])OCC[N+](C)(C)C)C1` [Compound 2b], in series [1], the inhibition at 25 µM was found to be 27% and the inhibition at 50 µM turned out to be 98%.
